According to paper PMC12305494, “Discovery of PXR Antagonist MI891 and PXR Degrader MI1013 and Their Roles in Hepatic Gene Regulation” (Journal of Medicinal Chemistry, 2025):

Columns and labels:
[1] = molecular target: PPARα (Homo sapiens, UniProt Q07869); experiment: PPARα luciferase reporter assay, agonistic and antagonistic setups; assay type: cell-based; details: prototype ligand fenofibrate
Description: For the farnesoid X receptor (FXR) luciferase gene reporter assay, the full-length expression vector was paired with pFXRE-luc luciferase construct. The p1A1-luc construct was used in the aryl hydrocarbon receptor (AhR) assays with pRL-TK for normalization. Gal4-LXR-α/β, and Gal4-PPAR-γ constructs were used with the pGAL4 UAS-luc construct. For the VDR assay, expression vector pSG5-hVDR together with pVDRE-luc constructs was used. Firefly and Renilla luciferase activities were analyzed using a Dual reporter assay (Promega). For the nuclear receptor assays, prototype ligands were used at the following concentrations: Calcitriol for VDR (100 nM), GW3965 for LXRα and LXRβ (10 μM), 6-OCA for FXR (1 μM), fenofibrate for PPARα (10 μM), estradiol for ERα and β (10 μM), rosiglitazone for PPARγ (10 μM), 3-MC for AhR (5 μM), and TCPOBOP for mCAR (10 μM). Detailed descriptions and protocols are detailed in our recent publication. ,

[2] = tested on: rodent PXRs; experiment: Rodent PXR orthologue luciferase reporter assays; assay type: cell-based, rat/mouse; details: PCN as prototypical inducer
Description: The CYP3A4 gene promoter luciferase reporter construct (p3A4-luc) bears a distal XREM (−7836/–7208) and a proximal promoter sequence (prPXRE, −362/+53) from the CYP3A4 gene promoter region. […] The human PXR expression vector (variant 1, NM_003889.3) as well as vectors for mouse, rat, and monkey orthologues were described in our recent paper (39). […] Rhesus monkey, mouse, and rat PXR expression vectors (100 ng/well each) were also obtained from GenScript. […] Carlberg (University of Kuopio, Kuopio, Finland).
(§1) The cells were cultured in DMEM medium (Merck) supplemented with 10% fetal bovine serum.

[3] = molecular target: T1, PXR (Homo sapiens, UniProt O75469); experiment: PXR-responsive CYP3A4 promoter luciferase reporter assay in HepG2, inverse agonist mode (basal activity); assay type: cell-based; parameters: expressed in transfected cells; host or cells: HepG2; details: for PXR inverse agonism: decrease of basal activity in %: tested at 10 μM, DMSO (0.1%) = 100% basal activity
T1 sequence (O75469 1-434): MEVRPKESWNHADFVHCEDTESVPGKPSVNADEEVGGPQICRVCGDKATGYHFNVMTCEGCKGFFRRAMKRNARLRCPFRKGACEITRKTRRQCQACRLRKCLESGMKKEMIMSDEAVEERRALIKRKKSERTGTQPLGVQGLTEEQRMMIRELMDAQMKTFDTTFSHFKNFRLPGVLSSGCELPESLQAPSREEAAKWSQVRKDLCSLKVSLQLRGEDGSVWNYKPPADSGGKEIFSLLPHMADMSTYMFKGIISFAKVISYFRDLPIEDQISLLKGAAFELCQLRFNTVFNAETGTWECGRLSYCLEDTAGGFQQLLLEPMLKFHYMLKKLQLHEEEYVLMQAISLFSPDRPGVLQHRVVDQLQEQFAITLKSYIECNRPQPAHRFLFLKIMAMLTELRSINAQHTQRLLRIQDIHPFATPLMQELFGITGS
Description: (§2) Rhesus monkey, mouse, and rat PXR expression vectors (100 ng/well each) were also obtained from GenScript. […] Carlberg (University of Kuopio, Kuopio, Finland).
as §1

[4] = molecular target: T2, PXR (Homo sapiens, UniProt O75469+Q96SW2); experiment: Western blot of PXR in differentiated HepaRG cells; assay type: cell-based
T2 construct: differentiated hepatic HepaRG cells, which naturally express high PXR activity and expression; endogenous in cells; host or cells: differentiated HepaRG
Description: (§3) The harvested HepaRG cells were lysed in RIPA lysis buffer (Cat. no 89900, Thermo Scientific) containing Halt protease inhibitor cocktail inhibitors (Thermo Scientific). Protein concentration was measured using the Pierce BCA Protein Assay Kit (Cat. no. 23225, Thermo Scientific), samples were diluted in 4 × Laemmli sample buffer (Cat. no. 1610747, BioRad) supplemented with mercaptoethanol and heated at 95 °C for 5 min. Equal amounts of protein were loaded in 4–20% Mini-PROTEAN TGX Stain-Free Protein Gels (12 well. cat. no. 4561095 or 15 well, cat. no. 4568096, Bio-Rad), electrophorised, and transferred onto Trans-Blot Turbo Midi-size PVDF Membrane (cat. no. 1704273, Bio-Rad), and blocked with EveryBlot Blocking buffer for 10 min (cat. no. 12010020, Bio-Rad). The membranes were incubated overnight at 4 °C with the following antibodies: PXR polyclonal antibody (1:500, PA5–41170, Invitrogen), RXRA polyclonal antibody (1:1000, 21218–1-AP, Proteintech), and GSPT1 polyclonal antibody (1:1000, 10763-a-AP, Proteintech), washed with TBS-T for 3 times, and followed by incubation with goat antirabbit IgG (H + L) Secondary antibody, HRP (1:200, 000, 1 h, cat. no. 31460, Invitrogen). Chemiluminescence signals were detected using SuperSignal West Femto Maximum Sensitivity Substrate (cat. no. 34096, Thermo Scientific) and visualized by the ChemiDoc MP Imaging system (Universal Hood III, #731BR02821, Bio-Rad), and the bands were quantified using β-actin (1:2000, recombinant rabbit conjugated monoclonal antibody (JF53-10), cat. no. MA5-32540, Invitrogen) as loading control with ImageJ (version 1.54g) software.

[5] = tested on: RXRα; experiment: Western blot of RXRα in HepaRG cells; assay type: cell-based, human; details: 24 h
Description: as §3, with “The membranes were incubated overnight at 4 °C with the following antibodies: PXR polyclonal antibody (1:500, PA5–41170, Invitrogen), RXRA polyclonal antibody (1:1000, 21218–1-AP, Proteintech), and GSPT1 polyclonal antibody (1:1000, 10763-a-AP, Proteintech), washed with TBS-T for 3 times, and followed by incubation with goat antirabbit IgG (H + L) Secondary antibody, HRP (1:200, 000, 1 h, cat. no. 31460, Invitrogen).” left out

[6] = molecular target: T3, PXR LBD (Homo sapiens, UniProt O75469); experiment: LanthaScreen TR-FRET PXR competitive binding assay; details: recombinant PXR LBD, competition with tracer
T3 construct: purchased Thermo Fisher Scientific PV4839
Description: We utilized the LanthaScreen TR-FRET CAR Coactivator Binding Assay Kit, goat (Thermo Fisher Scientific, Cat. No. PV4836), which includes GST-tagged human CAR LBD and a fluorescein-labeled PGC1α coactivator peptide. The assay was performed with slight modifications to the manufacturer’s protocol, as previously reported. […] The interaction with the PXR ligand-binding domain (LBD) was assessed using the LanthaScreen TR-FRET PXR Competitive Binding Assay (Thermo Fisher Scientific, PV4839), as previously described. This assay quantifies the ability of test compounds to displace a fluorescent PXR ligand from the receptor. Fluorescence readings were taken on a Synergy 2 Multi-Mode Microplate Reader (BioTek, Winooski, VT). The half-maximal inhibitory concentration (IC50) for PXR LBD was calculated from at least eight data points using GraphPad Prism software.

[7] = molecular target: T1, PXR; experiment: PXR-responsive CYP3A4 promoter luciferase reporter assay in HepG2, agonist mode; assay type: cell-based; parameters: expressed in transfected cells; host or cells: HepG2; details: HepG2, at concentrations up to 10 μM
Description: as §2, §1

T2 sequence (Q96SW2 whole entry, one chain of several): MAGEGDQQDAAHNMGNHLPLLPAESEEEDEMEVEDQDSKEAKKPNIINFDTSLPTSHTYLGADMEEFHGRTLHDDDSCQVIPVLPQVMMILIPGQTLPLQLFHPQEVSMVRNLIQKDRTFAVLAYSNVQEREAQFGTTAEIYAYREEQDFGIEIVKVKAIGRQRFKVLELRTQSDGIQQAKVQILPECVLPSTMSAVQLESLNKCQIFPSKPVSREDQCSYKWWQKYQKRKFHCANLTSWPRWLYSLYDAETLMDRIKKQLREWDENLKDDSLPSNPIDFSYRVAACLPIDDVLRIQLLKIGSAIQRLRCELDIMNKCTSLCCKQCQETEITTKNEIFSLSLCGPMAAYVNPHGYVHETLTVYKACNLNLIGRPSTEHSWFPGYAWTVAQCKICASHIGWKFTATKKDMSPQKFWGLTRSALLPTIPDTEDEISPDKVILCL
Chain of PPARα (Q07869 whole entry, the tested form may be a part): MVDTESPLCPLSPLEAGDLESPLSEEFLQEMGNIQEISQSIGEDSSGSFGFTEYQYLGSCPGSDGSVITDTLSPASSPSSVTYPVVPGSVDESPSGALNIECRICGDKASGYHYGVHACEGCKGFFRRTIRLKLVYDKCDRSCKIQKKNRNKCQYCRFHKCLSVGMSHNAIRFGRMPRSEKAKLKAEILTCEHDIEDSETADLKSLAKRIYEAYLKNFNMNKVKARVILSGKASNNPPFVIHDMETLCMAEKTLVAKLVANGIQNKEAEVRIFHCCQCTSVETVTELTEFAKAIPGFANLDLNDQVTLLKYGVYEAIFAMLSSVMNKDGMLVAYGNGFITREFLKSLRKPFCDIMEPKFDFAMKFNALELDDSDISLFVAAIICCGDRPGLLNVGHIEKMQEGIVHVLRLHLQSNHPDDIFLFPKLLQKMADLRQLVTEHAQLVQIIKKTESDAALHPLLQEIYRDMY

Row | Compound | agonistic or antagonistic activity on PPARα [1] | activity on rodent PXRs [2] | inhibition at 10 µM ([3]; HepG2, at 10 μM, read-out: maximal inhibition (inverse agonism)) [%] | IC50 ([3]; compound alone, HepG2, read-out: IC50, inverse agonistic activity) [µM] | PXR inverse agonism: decrease of basal activity in % [3] | PXR inverse agonism: decrease of basal activity in % ([3]; listed as 11 (MI891)) | PXR degradation, time course ([4]; 2 μM, reversal of PXR expression after 72 h) | PXR degradation (Western blot) ([4]; 24 h) | PXR degradation Dmax ([4]; 24 h, Western blot) [%] | DC50 ([4]; 24 h, Western blot, read-out: PXR degradation DC50) [µM] | RXRα degradation [5] | binding to PXR LBD compared to MI1011B and SR12813 [6] | PXR agonistic activity [7]
1 | NC(=O)c1cc(Cn2cc(-c3c(-c4ccc(Cl)cc4)nc4c(F)cc(F)cn34)nn2)ccc1Cl [Compound 11, 2-Chloro-5-((4-(2-(4-chlorophenyl)-6,8-difluoroimidazo[1,2-a]pyridin-3-yl)-1H-1,2,3-triazol-1-yl)methyl)-benzamide] | no significant agonistic or antagonistic activities | no activities | 68.8 ± 5.5 | 6.1 | (-68.84±5.53) % | –68.84 ± 5.53% | – | – | – | – | – | – | –
2 | N-(4-((1-(2,5-dimethoxyphenyl)-5-methyl-1H-1,2,3-triazol-4-yl)sulfonyl)phenyl)-3-(2-(2-(2-(4-(((2-(2,6-dioxopiperidin-3-yl)-1,3-dioxoisoindolin-4-yl)amino)methyl)-1H-1,2,3-triazol-1-yl)ethoxy)ethoxy)ethoxy)propenamide [Compound 36] | – | – | – | – | – | – | significant degradation of PXR after 12 h | selectively degrades PXR | 82 | 0.089 | does not degrade | weaker binding to PXR LBD | did not exhibit agonistic activity
